Assay results taken from patent publication US9333202B2, “Non-retinoid antagonists for treatment of age-related macular degeneration and stargardt disease” (THE TRUSTEES OF COLUMBIA UNIVERSITY IN THE CITY OF NEW YORK, priority 2012, dated 2016).
Entries after “also recorded” stand apart in the source; their conditions may differ.

target: T1, human RBP4 (Homo sapiens, UniProt P02753); assay: Scintillation proximity (SPA) RBP4 binding assay; settings: not given
T1 construct: Untagged human RBP4 purified from urine of tubular proteinuria patients; purchased Fitzgerald Industries International; host or cells: human urine (tubular proteinuria patients)
Experimental: Untagged human RBP4 purified from urine of tubular proteinuria patients was purchased from Fitzgerald Industries International. It was biotinylated using the EZ-Link Sulfo-NHS-LC-Biotinylation kit from Pierce following the manufacturer's recommendations. Binding experiments were performed in 96-well plates (OptiPlate, PerkinElmer) in a final assay volume of 100 μl per well in SPA buffer (1×PBS, pH 7.4, 1 mM EDTA, 0.1% BSA, 0.5% CHAPS). The reaction mix contained 10 nM ^3H-Retinol (48.7 Ci/mmol; PerkinElmer), 0.3 mg/well Streptavidin-PVT beads, 50 nM biotinylated RBP4 and a test compound. Nonspecific binding was determined in the presence of 20 μM of unlabeled retinol. The reaction mix was assembled in the dark under dim red light. The plates were sealed with clear tape (TopSeal-A: 96-well microplate, PerkinElmer), wrapped in the aluminum foil, and allowed to equilibrate 6 hours at room temperature followed by overnight incubation at +4° C. Radiocounts were measured using a TopCount NXT counter (Packard Instrument Company).

| Binding to RBP4 in vitro (in words) | SMILES |
| --- | --- |
| bind to RBP4 | O=C(c1c[nH]cn1)N1CCC(c2ccccc2C(F)(F)F)CC1 [Compound 48] |
| bind to RBP4 | CS(=O)(=O)c1ccc(NC(=O)N2CCC(c3ccccc3C(F)(F)F)CC2)c(C(=O)O)c1 [Compound 64] |

same assay, conditions: 10 nM 3H-retinol, 50 nM biotinylated RBP4; each value one experiment; read-out: IC50 in SPA-based RBP4 binding assay

| IC50 | SMILES |
| --- | --- |
| 5.68 nM | O=C(c1c[nH]cn1)N1CCC(c2ccccc2C(F)(F)F)CC1 [Compound 48] |
| 49.8 nM | CS(=O)(=O)c1ccc(NC(=O)N2CCC(c3ccccc3C(F)(F)F)CC2)c(C(=O)O)c1 [Compound 64] |

target: RBP4-TTR interaction (Homo sapiens, UniProt P02753); assay: HTRF/TR-FRET assay for retinol-dependent RBP4-TTR interaction (1 μM retinol); format: biochemical; design: human RBP4 fragment (amino acids 19-201) was expressed in the Gold(DE3)pLysS E. coli strain; made in house; host or cells: E. coli Gold(DE3)pLysS (Stratagene), pMAL-c4x vector; settings: not given
Source text: Bacterially expressed MBP-RBP4 and untagged TTR were used in this assay. For the use in the TR-FRET assay the maltose binding protein (MBP)-tagged human RBP4 fragment (amino acids 19-201) was expressed in the Gold(DE3)pLysS E. coli strain (Stratagene) using the […] vector. Following cell lysis, recombinant RBP4 was purified from the soluble fraction using the ACTA FPLC system (GE Healthcare) equipped with the 5-ml the MBP Trap HP column. Human untagged TTR was purchased from Calbiochem. Untagged TTR was labeled directly with Eu^3+ Cryptate-NHS using the HTRF Cryptate Labeling kit from CisBio following the manufacturer's recommendations. HTRF assay was performed in white low volume 384 well plates (Greiner-Bio) in a final assay volume of 16 μl per well. The reaction buffer contained 10 mM Tris-HCl pH 7.5, 1 mM DTT, 0.05% NP-40, 0.05% Prionex, 6% glycerol, and 400 mM KF. Each reaction contained 60 nM MBP-RBP4 and 2 nM TTR-Eu along with 26.7 nM of anti-MBP antibody conjugated with d2 (Cisbio). Titration of test compounds in this assay was conducted in the presence of 1 μM retinol. All reactions were assembled in the dark under dim red light and incubated overnight at +4° C. wrapped in aluminum foil. TR-FRET signal was measured in the SpectraMax M5e Multimode Plate Reader (Molecular Device). Fluorescence was excited at 337 nm and two readings per well were taken: Reading 1 for time-gated energy transfer from Eu(K) to d2 (337 nm excitation, 668 nm emission, counting delay 75 microseconds, counting window 100 microseconds) and Reading 2 for Eu(K) time-gated fluorescence (337 nm excitation, 620 nm emission, counting delay 400 microseconds, counting window 400 microseconds). The TR-FRET signal was expressed as the ratio of fluorescence intensity: Flu665/Flu620×10,000.

| SMILES | Antagonism of RBP4-TTR interaction in vitro (in words) |
| --- | --- |
| FC(F)(F)c1cccc(CCN2CCN(c3ncccc3C(F)(F)F)CC2)c1 [Compound 17] | antagonize RBP4-TTR interaction in vitro at biologically significant concentrations |
| FC(F)(F)c1cccc(CCN2CCN(c3ncnc4sc5c(c34)CCC5)CC2)c1 [Compound 20] | antagonize RBP4-TTR interaction in vitro at biologically significant concentrations |
| FC(F)(F)c1cccc(CN2CCN(c3ncnc4sc5c(c34)CCC5)CC2)c1 [Compound 21] | antagonize RBP4-TTR interaction in vitro at biologically significant concentrations |
| O=C(Cc1ccccc1C(F)(F)F)N1CCN(c2ncnc3sc4c(c23)CCC4)CC1 [Compound 22] | antagonize RBP4-TTR interaction in vitro at biologically significant concentrations |
| O=C(c1ccc(C(F)(F)F)cc1F)N1CCC(c2ccccc2C(F)(F)F)CC1 [Compound 32] | antagonize RBP4-TTR interaction in vitro at biologically significant concentrations |
| O=C(c1ccc(C(F)(F)F)c(F)c1)N1CCC(c2ccccc2C(F)(F)F)CC1 [Compound 33] | antagonize RBP4-TTR interaction in vitro at biologically significant concentrations |
| O=C(c1cccc(C(F)(F)F)c1)N1CCC(c2ccccc2C(F)(F)F)CC1 [Compound 34] | antagonize RBP4-TTR interaction in vitro at biologically significant concentrations |
| O=C(c1ccc(F)c(C(F)(F)F)c1)N1CCC(c2ccccc2C(F)(F)F)CC1 [Compound 35] | antagonize RBP4-TTR interaction in vitro at biologically significant concentrations |
| O=C(c1ccc(Cl)c(C(F)(F)F)c1)N1CCC(c2ccccc2C(F)(F)F)CC1 [Compound 36] | antagonize RBP4-TTR interaction in vitro at biologically significant concentrations |
| COC(=O)c1cccc(C(=O)N2CCC(c3ccccc3C(F)(F)F)CC2)c1 [Compound 37] | antagonize RBP4-TTR interaction in vitro at biologically significant concentrations |
| O=C(Cc1ccccc1C(F)(F)F)N1CCC(c2ccccc2C(F)(F)F)CC1 [Compound 38] | antagonize RBP4-TTR interaction in vitro at biologically significant concentrations |
| O=C(c1ccnc(C(F)(F)F)c1)N1CCC(c2ccccc2C(F)(F)F)CC1 [Compound 39] | antagonize RBP4-TTR interaction in vitro at biologically significant concentrations |
| O=C(c1cnccc1C(F)(F)F)N1CCC(c2ccccc2C(F)(F)F)CC1 [Compound 40] | antagonize RBP4-TTR interaction in vitro at biologically significant concentrations |
| O=C(c1cc(C(F)(F)F)ccn1)N1CCC(c2ccccc2C(F)(F)F)CC1 [Compound 41] | antagonize RBP4-TTR interaction in vitro at biologically significant concentrations |
| FC(F)(F)c1ccccc1C1CCN(c2ncccn2)CC1 [Compound 42] | antagonize RBP4-TTR interaction in vitro at biologically significant concentrations |
| Cc1ccnc(N2CCC(c3ccccc3C(F)(F)F)CC2)n1 [Compound 43] | antagonize RBP4-TTR interaction in vitro at biologically significant concentrations |
| FC(F)(F)c1ccnc(N2CCC(c3ccccc3C(F)(F)F)CC2)n1 [Compound 44] | antagonize RBP4-TTR interaction in vitro at biologically significant concentrations |
| COC(=O)c1cc(C)nc(N2CCC(c3ccccc3C(F)(F)F)CC2)n1 [Compound 45] | antagonize RBP4-TTR interaction in vitro at biologically significant concentrations |

| SMILES | Antagonism of RBP4-TTR interaction in vitro (in words) |
| --- | --- |
| FC(F)(F)c1ccccc1C1CCN(c2nccc(-c3ccccc3)n2)CC1 [Compound 46] | antagonize RBP4-TTR interaction in vitro at biologically significant concentrations |
| Fc1cnc(N2CCC(c3ccccc3C(F)(F)F)CC2)nc1 [Compound 47] | antagonize RBP4-TTR interaction in vitro at biologically significant concentrations |
| O=C(c1c[nH]cn1)N1CCC(c2ccccc2C(F)(F)F)CC1 [Compound 48] | antagonize retinol-dependent RBP4-TTR interaction |
| Cn1cnc(C(=O)N2CCC(c3ccccc3C(F)(F)F)CC2)c1 [Compound 49] | antagonize RBP4-TTR interaction in vitro at biologically significant concentrations |
| O=C(c1cn(Cc2ccccc2)cn1)N1CCC(c2ccccc2C(F)(F)F)CC1 [Compound 50] | antagonize RBP4-TTR interaction in vitro at biologically significant concentrations |
| Cn1cncc1C(=O)N1CCC(c2ccccc2C(F)(F)F)CC1 [Compound 51] | antagonize RBP4-TTR interaction in vitro at biologically significant concentrations |
| Cn1nc(C(F)(F)F)cc1C(=O)N1CCC(c2ccccc2C(F)(F)F)CC1 [Compound 52] | antagonize RBP4-TTR interaction in vitro at biologically significant concentrations |
| O=C(c1cc(C(F)(F)F)[nH]n1)N1CCC(c2ccccc2C(F)(F)F)CC1 [Compound 53] | antagonize RBP4-TTR interaction in vitro at biologically significant concentrations |
| O=C(c1nccs1)N1CCC(c2ccccc2C(F)(F)F)CC1 [Compound 54] | antagonize RBP4-TTR interaction in vitro at biologically significant concentrations |
| O=C(c1ccco1)N1CCC(c2ccccc2C(F)(F)F)CC1 [Compound 55] | antagonize RBP4-TTR interaction in vitro at biologically significant concentrations |
| O=C(O)c1cc(-c2ccccc2)ccc1NC(=O)N1CCC(c2ccccc2C(F)(F)F)CC1 [Compound 56] | antagonize RBP4-TTR interaction in vitro at biologically significant concentrations |
| O=C(O)c1cc(-c2ccc(F)cc2)ccc1NC(=O)N1CCC(c2ccccc2C(F)(F)F)CC1 [Compound 57] | antagonize RBP4-TTR interaction in vitro at biologically significant concentrations |
| CS(=O)(=O)c1ccc(-c2ccc(NC(=O)N3CCC(c4ccccc4C(F)(F)F)CC3)c(C(=O)O)c2)cc1 [Compound 58] | antagonize RBP4-TTR interaction in vitro at biologically significant concentrations |
| COC(=O)c1ccccc1NC(=O)N1CCC(c2ccccc2C(F)(F)F)CC1 [Compound 59] | antagonize RBP4-TTR interaction in vitro at biologically significant concentrations |
| COC(=O)c1ccc(Cl)cc1NC(=O)N1CCC(c2ccccc2C(F)(F)F)CC1 [Compound 60] | antagonize RBP4-TTR interaction in vitro at biologically significant concentrations |
| COC(=O)c1cc(Br)ccc1NC(=O)N1CCC(c2ccccc2C(F)(F)F)CC1 [Compound 61] | antagonize RBP4-TTR interaction in vitro at biologically significant concentrations |
| O=C(O)c1ccccc1NC(=O)N1CCN(c2ncncc2C(F)(F)F)CC1 [Compound 63] | antagonize RBP4-TTR interaction in vitro at biologically significant concentrations |
| CS(=O)(=O)c1ccc(NC(=O)N2CCC(c3ccccc3C(F)(F)F)CC2)c(C(=O)O)c1 [Compound 64] | antagonize retinol-dependent RBP4-TTR interaction; also recorded: antagonize RBP4-TTR interaction in vitro at biologically significant concentrations |

same assay, conditions: in the presence of 1 μM retinol; each value one experiment; read-out: IC50 in HTRF-based retinol-dependent RBP4-TTR interaction assay

| IC50 | SMILES |
| --- | --- |
| 106 nM | O=C(c1c[nH]cn1)N1CCC(c2ccccc2C(F)(F)F)CC1 [Compound 48] |
| 1270 nM | CS(=O)(=O)c1ccc(NC(=O)N2CCC(c3ccccc3C(F)(F)F)CC2)c(C(=O)O)c1 [Compound 64] |
